{
  "source": "patent EP0910652B1",
  "about": "“HORMONE-MEDIATED METHODS FOR […] EXOGENOUS GENES IN MAMMALIAN SYSTEMS, AND PRODUCTS RELATED THERETO” (THE SALK INSTITUTE FOR BIOLOGICAL STUDIES, priority 1996, dated 1997)",
  "key": {"[1]": {"system": "ecdysone receptor (EcR) with its natural heterodimeric partner USP", "experiment": "Transient transfection reporter assay in CV-1 cells, muristerone responsiveness", "assay_type": "cell-based", "details": "1µM muristerone A vs ethanol", "experimental": "(§1) CV-1 cells were maintained in DMEM supplemented with 10% Fetal Bovine Serum. Transient transfections were performed using DOTAP transfection reagent (Boehringer-Mannheim). Transfections using ß-galactosidase as the reporter were assayed either by Galactolight luminescent assay (Tropix, Bedford, MA) or by standard liquid ONPG assay (Sigma, St. Louis, MO). The values were normalized by co-transfection of CMX-luciferase. Transfections using luciferase as the reporter were assayed by standard techniques using luciferin and ATP. These values were normalized by co-transfection of CMX-ß-galactosidase. Hormone treated cells were treated with ethanol, 50 µM Juvenile Hormone III (Sigma), 1µM muristerone A (Zambon, Bresso, IT), or 1µM dexamethasone (Sigma) unless otherwise noted.\n(§2) To maximize the sensitivity of the invention ecdysone inducible system, modifications of the ecdysone receptor were made. The N-terminal transactivation domain of the ecdysone receptor was replaced by the corresponding domain of the glucocorticoid receptor (GR), resulting in the modified ecdysone receptor GEcR (See Figure 1D). CV-1 cells were transfected with the plasmid CMX-GEcR encoding the modified ecdysone receptor as discussed above. After transfection, cells were either treated with ethanol or 1µM muristerone A. This hybrid modified ecdysone receptor boosted muristerone responsiveness from 3- to 11-fold in a transient transfection assay (Fig. 1A)."}, "[2]": {"system": "modified ecdysone receptor GEcR (SEQ ID NO:9) with retinoid X receptor (RXR)", "experiment": "Transient transfection reporter assay in CV-1 cells, muristerone responsiveness", "assay_type": "cell-based", "details": "1µM muristerone A vs ethanol", "experimental": "as §1, §2"}, "[3]": {"system": "modified ecdysone receptor GEcR (SEQ ID NO:9; N-terminal transactivation domain of GR, DNA- and ligand-binding domains of EcR) with USP", "experiment": "Transient transfection reporter assay in CV-1 cells, muristerone responsiveness", "assay_type": "cell-based", "details": "1µM muristerone A vs ethanol", "experimental": "as §1, §2"}, "[4]": {"system": "modified ecdysone receptor VpEcR (SEQ ID NO:7; N-terminal truncation of EcR fused to VP16 activation domain) with RXR", "experiment": "Transient transfection reporter assay in CV-1 cells, muristerone responsiveness", "assay_type": "cell-based", "details": "1µM muristerone A vs no hormone", "experimental": "as §1"}, "[5]": {"system": "VpEcR (SEQ ID NO:7) with RXR (CMX-hRXRa) in N13 cells", "experiment": "Ecdysone responsiveness in stable cell line N13 (293 cells), ß-galactosidase and luciferase reporters", "assay_type": "cell-based", "details": "36 hours", "experimental": "Stable cell lines were generated containing the modified ecdysone receptor VpEcR, a heterodimeric partner (RXR), and an ecdysone inducible reporter (Figure 2). 293 cells were transfected with the following linearized plasmids, pRC-ESHß, EcREx5-ΔMTV-Luc, CMX-VpEcR, and CMX-hRXRa. The following day, the cells were split 1:10 and were allowed to recover one day prior to selection with 1mg/ml G418 (GIBCO). After 14 days of selection, 14 individual clones were isolated and grown separately in the presence of 0.5mg/ml G418.\nOne of these cell lines, N13, was grown in the presence or absence of 1µM muristerone for 20 hours. Cell lysates were then assayed for ß-galactosidase and luciferase activities as described in Example 1. X-gal staining was performed on the stable cell lines. Cells were fixed briefly with 10% formaldehyde in PBS and then stained with X-Gal (Molecular Probes, Eugene, OR) for 2 to 6 hours. After 24 hours of treatment with 1µM muristerone, 100% of the cells turned dark blue after 3 hours of staining. Thus, mammalian cells containing the modified ecdysone receptor VpEcR, a heterodimeric partner (RXR), and a reporter gene construct regulated by a modified ecdysone response element, function to efficiently express an exogenous gene in response to a ligand, e.g., ecdysone. […]\nFinally, the kinetics of muristerone mediated induction was measured. […]"}, "adult mice": {"system": "adult mice", "experiment": "Toxicity study in adult mice", "assay_type": "in vivo", "details": "20mg muristerone A in sesame oil, intraperitoneal, observed approximately two months", "experimental": "In order to use muristerone as a potential hormone in mice, its toxicity and bioavailability was examined. For toxicity studies, adult mice were injected intraperitonealy with 20mg of muristerone A suspended in sesame oil. The mice were then observed for approximately two months. […] In addition to the inert qualities of muristerone (an ecdysone), overexpression of VpEcR and RXR appears not to be toxic."}, "pregnant mice": {"system": "pregnant mice", "experiment": "Teratogenic study in pregnant mice", "assay_type": "in vivo", "details": "20mg muristerone A in sesame oil, mother and pups observed for three months"}, "[6]": {"system": "CV-1 cells transfected with CMX-GEcR, CMX-hRXRa, and EcREx5-DMTV-Luc", "experiment": "Muristerone bioavailability: serum of injected mice tested on transfected CV-1 cells", "assay_type": "in vivo", "experimental": "For muristerone bioavailability studies, adult mice were injected intraperitoneally with sesame oil with or without 10mg of muristerone, and were subsequently sacrificed for serum collection. After twelve hours, blood was drawn from the mice, and the serum was isolated by brief centrifugation of the whole blood. In order to conduct transfection assays to test for muristerone activity, serum from sesame oil injected mice was divided, and half was supplemented with muristerone to a final concentration of 10µM. The three batches of mouse serum were diluted 1:10 in DMEM and placed onto CV-1 cells transfected with CMX-GEcR, CMX-hRXRa, and EcREx5-DMTV-Luc."}, "[7]": {"system": "VpEcR and RXR (CD3-VpEcR; CD3-RXR) with ecdysone inducible reporter ESHß", "experiment": "Muristerone dependent gene expression in receptor/reporter transgenic mice, Northern blot", "assay_type": "in vivo", "details": "10mg muristerone intraperitoneal, RNA isolated 48 hours after treatment", "experimental": "To produce transgenic mice, the following DNA constructs were prepared and subsequently injected into fertilized eggs: CD3-VpEcR, CD3-RXR, ESHß (Lee et al., J. Exp. Med. 175:1013-1025 (1992)). Two separate lines of transgenic mice were generated harboring either an ecdysone inducible reporter, ESHß, or a T-cell specific expression construct of VpEcR and RXR, respectively. The former are referred to as reporter mice, the latter are referred to as receptor mice, and double transgenic mice are referred to as receptor/reporter mice. Constructs CD3-VpEcR and CD3-RXR were mixed and coinjected, while ESHß was injected alone. Primary genotyping was performed by Southern blot analysis and the transmission of transgenic mice was monitored by dot blot analysis. Receptor mice were analyzed for VpEcR and RXR expression by Northern blot analysis of RNA collected from these mice. For Northern blot analysis, 15µg of total RNA obtained from the thymus, and various tissues as a control, was run on a denaturing gel and blotted onto a nitrocellulose membrane. The blot was probed with a radiolabeled ß-gal-specific probe and exposed on film for 2 days. These receptor mice were healthy, fertile, and appeared normal by visual inspection. In addition, the transgene was transferred to the offspring as expected by Mendelian genetics. […]"}},
  "data": [
    {"smiles": "CC(C)CC[C@@H](O)[C@](C)(O)[C@H]1CC[C@@]2(O)C3=CC(=O)[C@]4(O)C[C@@H](O)[C@@H](O)C[C@]4(C)[C@H]3[C@H](O)C[C@]12C", "note": "[muristerone A]", "values": [
      {"measurement": "muristerone responsiveness (induction)", "setting": "[1]", "result": 3, "unit": "fold"},
      {"measurement": "induction", "setting": "[2]", "result": 34, "unit": "fold"},
      {"measurement": "muristerone responsiveness (induction)", "setting": "[3]", "result": 11, "unit": "fold"},
      {"measurement": "induction", "setting": "[4]", "result": 212, "unit": "fold"},
      {"measurement": "inducibility", "setting": "[5]; final concentration 10µM muristerone, ß-galactosidase and luciferase reporters", "result": "~3 orders of magnitude"},
      {"measurement": "induction", "setting": "[5]; muristerone concentrations as low as 100nM", "result": "One-hundred"},
      {"measurement": "toxicity", "setting": "adult mice", "result": "neither toxic"},
      {"measurement": "teratogenicity", "setting": "pregnant mice", "result": "neither toxic, teratogenic"},
      {"measurement": "luciferase activity of serum from muristerone treated mice", "setting": "[6]; 10mg muristerone intraperitoneal, serum after twelve hours, diluted 1:10 in DMEM", "result": "comparable to that seen from untreated mouse serum supplemented with 1µM muristerone"},
      {"measurement": "activity when injected into mice", "setting": "[6]; injected into mice", "result": "maintains its activity"},
      {"measurement": "inactivation by serum binding proteins", "setting": "[6]; injected into mice", "result": "nor inactivated by serum binding proteins"},
      {"measurement": "blunting of activity due to association with serum proteins", "setting": "[6]; mouse serum", "result": "little or no blunting of activity"},
      {"measurement": "induction from an ecdysone inducible promoter in the thymus", "setting": "[7]", "result": "significant induction"}
    ]}
  ]
}
